Series [1] can be described thus: Isoelectric point. In kind it is physicochemical.
Series [2] has as its system E. coli. In words: Microdilutional timed kill assay, E. coli. It counts as cell-based, Escherichia coli. As to conditions: for growth inhibitory activity against E. coli, comparative: microdilution, 6 hours, FIG. 22. How it is done: (§1) Inhibition of growth of E. coli was assessed in a microdilutional timed kill assay. (See FIG. 22) Bacteria and Candida albicans were grown overnight on trypticase soy agar (TSA) and Sobouraud dextrose agar (SDA) plates, respectively, were suspended into RPMI-1640 medium (Bio-Whittaker) and adjusted to a final concentration of 8×10^3 cfu/ml in […] in plastic microdilution trays. AM-related peptides, magainins, and albumin were added in equimolar concentrations ranging from 8 μM to 300 μM. Plates were incubated at 37° C. with gentle agitation over 24 hours. At 6 hr and 24 hr time points, 10 to […] aliquots from each well were quantitatively cultured by serial 100-fold dilutions onto TSA and SDA plates.

In series [3] the test system is S. aureus. The series is described as follows: Micro-/macrodilutional assays, S. aureus. In kind it is cell-based, Staphylococcus aureus. As to conditions: microdilutional or macrodilutional assays. How it is done: as §1, with “AM-related peptides, magainins, and albumin were added in equimolar concentrations ranging from 8 μM to 300 μM.” left out
(§2) Data were compiled from six experiments. Macrodilution assays were performed in 12×75 mm borosilicate glass tubes. Organisms were grown and harvested, as described in Roilides, E., et al., J Infect Dis. 163:579 (1991), and adjusted to a final inoculum concentration of 8×10^3 cfu/ml in 400 μl. […] Tubes were incubated at 37° C. with gentle agitation over 24 hours. At 6 and 24 hour time points, 100 μl aliquots from each tube were quantitatively cultured by serial 100-fold dilutions onto TSA and SDA plates.
For orientation: Broth dilution looks for growth in wells or tubes with falling amounts of substance.

The subject of series [4] is C. albicans. In words: Micro-/macrodilutional assay, C. albicans. In kind it is cell-based, Candida albicans. As to the method:
as §1, with “AM-related peptides, magainins, and albumin were added in equimolar concentrations ranging from 8 μM to 300 μM.” left out
as §2

Series [5] concerns P. aeruginosa. The series is described as follows: Micro-/macrodilution timed kill assay, P. aeruginosa. It counts as cell-based, Pseudomonas aeruginosa. As to conditions: 24 hours exposure compared with 6 hours incubation. As to the method: as §1, with “AM-related peptides, magainins, and albumin were added in equimolar concentrations ranging from 8 μM to 300 μM.” left out
as §2

Series [6] concerns AM receptors. The series is described as follows: 125I-AM receptor binding, MCF-7. Also noted: species or system human. As to conditions: MCF-7 as representative cancer line. As to the method: j. Receptor Binding: Receptor binding analysis were performed as previously described (Moody, T. W., et al., Proc. Natl. Acad. Sci. U.S.A. 90:4345-4349 (1993)). Briefly, cells (5×10^4) were placed in 24-well plates coated with fibronectin (20 μg). When a monolayer is formed, the cells were washed 4 times in TIS buffer followed by incubation with receptor binding medium (TIS plus 1% BSA and 1 mg/ml bacitracin). […] After washing the cells 4 times in receptor binding buffer at 4° C., they were dissolved in 0.2 N NaOH and counted on a gamma counter.

Series [7] relates to E. coli. In words: Macrodilution assay, E. coli. It counts as cell-based, Escherichia coli. As to conditions: for antimicrobial activity, macrodilution, 6 hours: 6 hours incubation. As to the method: as §2
In series [8] the test system is AM receptor. The series is described as follows: cAMP assay (RIA), MCF-7. As to conditions: MCF-7. In kind it is cell-based, human. How it is done:
k. cAMP Assays: Cyclic AMP was assayed by RIA using a kit obtained from New England Nuclear (Boston, Mass.). […] The supernatants were tested for cAMP using the RIA kit following the manufacturer's instructions.
(Changes in cAMP serve as a functional read-out for many G protein-coupled receptors.)

Series [9] has as its system rat mast cells. As to conditions: compared with magainin-2 / AM.
In series [10] the test system is E. coli, P. aeruginosa, C. albicans, S. aureus. In words: Antimicrobial dilution assays against bacterial and fungal pathogens. In kind it is cell-based. As to conditions: microdilutional assay. As to the method: In order to assess the antimicrobial activity of AM and its gene related peptides, both microdilution and macrodilution assays were performed against Escherichia coli (E. coli), Staphylococcus aureus (S. aureus), Pseudomonas aeruginosa (P. aeruginosa) and Candida albicans (C. albicans). A germination assay was also performed in order to further assess anti-candidal activity (Ghannoum, M. A. and Radwan, S. S., Candida Adherence to Epithelial Cells. CRC Press; Boca Raton, Fla. 1990 pp. 72-104).
as §1
The antimicrobial activity of AM and PAMP was determined in a macrodilution assay after 6 hours of incubation of E. coli. […] Data were compiled from six experiments. Macrodilution assays were performed in 12×75 mm borosilicate glass tubes. Organisms were grown and harvested, as described in Roilides, E., et al., J Infect Dis. 163:579 (1991), and adjusted to a final inoculum concentration of 8×10^3 cfu/ml in 400 μl. AM-related peptides, magainins, and albumin were added in equimolar concentrations ranging from 8 μM to 300 μM. Tubes were incubated at 37° C. with gentle agitation over 24 hours. At 6 and 24 hour time points, 100 μl aliquots from each tube were quantitatively cultured by serial 100-fold dilutions onto TSA and SDA plates.

The subject of series [11] is NCI-H1264. The series is described as follows: 125I-AM binding to NCI-H1264 cells. Also noted: species or system human. As to conditions: 0.2 nM per 5×10^5 cells; NCI-H1264 positive control. The source says: (§3) A similar mechanism has been described for amylin (R. A. Pittner et al., J. Cell. Biochem. 55S, 19 (1994)).
Series [12] deals with RINm cells. In words: 125I-AM binding to RINm cells. As to conditions: 0.2 nM per 5×10^5 cells.
Excerpt: as §3

“Also recorded” adds a separate entry of the source. Read-outs that look alike come from different tables or passages of the source. Ends that are not written are not given here.

As for “ARLDVASEFRKKWNKWALSR-NH2 [PAMP-20, ARLDVASEFRKKWNKWALSR-NH2]”, the isoelectric point in series [1] is listed as 10.1; in series [1] (listed as PAMP) it was 11.1. Moreover, the “activity against E. coli” value in [2] (after 6 hours of incubation) is recorded as “activity”. Besides, in [2], the “growth inhibitory activity against E. coli, comparative” value was “higher growth inhibitory activity than albumin”. Also, the “growth suppressive activity against S. aureus” value in series [3] is reported as “ineffective; also recorded: no apparent growth suppressive activity”. Also, the “antimicrobial effect against C. albicans” value in [4] is 79.7%±2.4. The “activity against C. albicans” value in series [4] (after 6 hours of incubation) is on record as “activity”. In addition, in series [5], the “antimicrobial activity against P. aeruginosa, 24 hours versus 6 hours” value is given as “greater antimicrobial activity”. The “competition for 125I-AM binding” value in series [6] is on record as “not competitively blocked”. Moreover, the “antimicrobial activity, macrodilution, 6 hours” value in [7] (E. coli) was “greater activity”. Also, the “effect on cAMP” value in [8] was “no effect”. Further, in series [9], the “relative potency in inducing histamine release” value is “twenty times more potent”.

As for Magainin [reference compound], the “growth inhibitory activity against E. coli, comparative” value in series [2] is reported as “greater inhibitory activity”. Moreover, the “potency against C. albicans, comparative” value in series [4] is “more potent than AM and PAMP”. Moreover, in [7] (E. coli), the “antimicrobial activity, macrodilution, 6 hours” value is “moderate activity”. In series [7] (E. coli, 24 hours incubation), the “antimicrobial activity, macrodilution, 24 hours” value is “significantly greater in antimicrobial activity than either AM or PAMP; also recorded: more potent than either AM”. For the same substance, in [7] (macrodilution), the “optical clarity of bacterial suspension” value is reported as “optically clear suspension of bacteria”.

Regarding “TVQKLAHQIYQFTDKDKDNVAPRSKISPQGY-NH2 [PO72]”, the “activity against these pathogens” value in [10] is “little or no activity”. The “competition for 125I-AM binding” value in series [6] is recorded as “not competitively blocked”. In addition, the “effect on cAMP” value in [8] was “no effect”.

With “Y-G-G-H-Q-I-Y-Q-F-T-D-K-D-NH2 (YGGHQIYQFTDKD-NH2) [PO71, ID; NO]”, the “activity against these pathogens” value in [10] is “little or no activity”.

On to “Y-Y-W-N-K-W-A-L-S-R-NH2 (YYWNKWALSR-NH2) [PO70, ID; NO]”, for which, in series [10], the “activity against these pathogens” value is “little or no activity”.

Take “^125I-AM: iodinated AM ligand (Phoenix Pharmaceuticals)”: the “binding of 125I-AM” value in series [11] was 2265 cpm; in series [12], 25 cpm.

Values taken from patent US7939639B2, “Functional role of adrenomedullin (AM) and the gene related product (PAMP) in human pathology and physiology” (The United States of America as represented by the …, priority 1995, dated 2011).
